From paper PMC9945734 (BMC Medicine, 2023)

Key:
Assay in all cases: Fluorescence titration (quenching) of KLF5 protein
Settings in all cases: read-out: binding constant Kd
KLF5 protein = molecular target: T1, KLF5 protein (Homo sapiens, UniProt Q13887)
T1 construct: made in house; host or cells: E. coli BL21 DE3
Procedure: (§1) Wild-type or mutant KLF5 protein at 1 μM in 2 mL PBS was measured for fluorescence spectrum using a fluorescence spectrometer (HORIBA, Kyoto, Japan), and the fluorescence spectra were obtained for wavelengths of 300–500 nm. NTZ with various concentration ranges and various increments were used in the analysis, including 0.1–1 μM with an increment of 0.1 μM, 1–5 μM with an increment of 0.5 μM, 5–10 μM with an increment of 1 μM, and 10–30 μM with an increment of 5 μM. The incubation with NTZ was for 5 s at room temperature. Data were processed and fitted to obtain the binding affinities using the Origin software (OriginLab, Northampton, MA, USA), and Kd values were determined by the responses at […] wavelength.

KLF5^K369Q protein = molecular target: T2, KLF5^K369Q protein (Homo sapiens, UniProt Q13887, K369Q)
T2 construct: made in house; host or cells: E. coli BL21 DE3
Procedure: as §1

KLF5^K369R protein = molecular target: T3, KLF5^K369R protein (Homo sapiens, UniProt Q13887, K369R)
T3 construct: made in house; host or cells: E. coli BL21 DE3
Procedure: as §1

Measured: Kd

T3 sequence (Q13887 whole entry K369R): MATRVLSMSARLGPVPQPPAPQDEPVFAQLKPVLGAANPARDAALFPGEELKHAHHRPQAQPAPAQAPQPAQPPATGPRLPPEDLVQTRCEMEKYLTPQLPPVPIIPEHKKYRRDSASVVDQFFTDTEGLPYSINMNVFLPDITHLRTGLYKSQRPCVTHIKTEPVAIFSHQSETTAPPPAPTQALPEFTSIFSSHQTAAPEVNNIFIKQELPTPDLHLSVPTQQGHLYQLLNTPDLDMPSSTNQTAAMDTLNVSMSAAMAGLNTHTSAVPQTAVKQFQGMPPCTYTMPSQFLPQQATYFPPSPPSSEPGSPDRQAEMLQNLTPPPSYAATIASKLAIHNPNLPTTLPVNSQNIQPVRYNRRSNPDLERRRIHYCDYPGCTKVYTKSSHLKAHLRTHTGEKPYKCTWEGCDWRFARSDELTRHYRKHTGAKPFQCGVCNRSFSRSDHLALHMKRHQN
T1 sequence (Q13887 whole entry): as the sequence (Q13887 whole entry K369R) above, with R369K counted along it
T2 sequence (Q13887 whole entry K369Q): as the sequence (Q13887 whole entry K369R) above, with R369Q counted along it

CC1(C)CCC(C)(C)c2cc(NC(=O)c3ccc(C(=O)O)cc3)ccc21 [Am80]
> 30 µM: KLF5 protein | KLF5^K369Q protein | KLF5^K369R protein
